Entries after “also recorded” stand apart in the source; their conditions may differ. Read-outs that look alike come from different tables or passages of the source.
Legend:
[1] = tested on: Chronic MPTP-lesioned mouse; settings: 1% in the drinking water; Ferguson et al. 2015; cited from earlier work
[2] = Plasma pharmacokinetics in macaques, 1 and 7 days oral administration; assay type: in vivo; settings: for AUC(0-inf) / Cmax / Tmax / half-life / AUC(0-t): female, monkey, plasma, po, macaque plasma; for AUC(0-t): read-out: AUC0-24h
Experimental: Three female macaques (3.81-4.67 kg) received trehalose (2.67 and 5.34 g/kg/day, oral gavage in sterile water) for 7 days. Plasma samples were collected pre-dose and 15 min, 30 min, 1 h, 2 h, 4 h, 6 h, 12 h and 24 h post-dose on days 1 and 7 and analysed for trehalose levels using a validated LC-MS/MS method and plasma exposure time courses (FIG. 2) and pharmacokinetic parameters were calculated (Table 7).

[3] = Plasma and brain pharmacokinetics in rats, 1 and 7 days oral administration; assay type: in vivo, Sprague-Dawley rats; settings: for AUC(0-t): read-out: AUC0-12h
Experimental: One hundred Sprague-Dawley rats (200-260 g), female (60) and male (40), received trehalose (2.67 g/kg/day, oral gavage in sterile water) for 1 or 7 days. Groups of 5 rats (3 female, 2 male) were sacrificed at pre-dose and 15 min, 30 min, 1 h, 1.5 h, 2 h, 3 h, 4 h, 8 h and 12 h post-dose on days 1 and 7 and plasma and brain samples collected. Plasma and brain samples were analysed for trehalose levels using a validated LC-MS/MS method and plasma exposure timecourses (FIG. 1) and pharmacokinetic parameters were calculated (Table 6). Brain levels of trehalose were approximately 1% of plasma levels at all time-points (FIG. 1).

α-synuclein (αSYN) = settings: rodent models of PD; Tanji et al., He et al., Wu et al. 2015; cited from earlier work
rats receiving A53T αSYN = assay: Cylinder test of forelimb asymmetry in AAV1/2 A53T αSYN rat model of PD; assay type: in vivo, Sprague-Dawley rats; settings: Day 42, 2.67 g/kg, once per day p.o.
Experimental: Thirty female, Sprague-Dawley rats (280-325 g) split into 5 groups (N=4-8 rats/group) and received a unilateral injection in to the substantia nigra (at co-ordinates AP −5.2 mm; ML −2 mm relative to Bregma, DV −7.5 mm relative to skull over SN) of AAV1/2 delivering A53T alpha-synuclein (AAV1/2 αSYN) or empty vector (control). The A53T αSyn expressed is of the human sequence. Its control is an empty AAV1/2 vector of the same serotype and viral construction. Both AAV1/2 vectors were diluted in sterile phosphate buffered saline and administered at a volume of 2 μl. […]
Animal behavior was assessed pre-surgery and at 3 and 6 weeks post-surgery. Behaviour was assessed by the cylinder test to assess forelimb asymmetry with asymmetry indicating an imbalance in striatal dopaminergic function between the side injected with AAV1/2 αSYN and the contralateral side. […] Striatal tissue from both hemispheres was collected and analysed for dopamine levels. Substantia nigra tissue was collected and analysed for the number of TH^+ve cells and the amount of A53T αSYN measured. Plasma and brain (cerebellum) samples were collected and trehalose levels analysed by LC-MS/MS.

[4] = tested on: Transgenic α-synuclein mouse; settings: 2% trehalose in drinking water; Tanji et al. 2015; cited from earlier work
[5] = Brain and CSF trehalose levels in macaques after two days administration; assay type: in vivo; settings: female, macaque, oral; for concentration at 1 h: 2.67 g/kg for two days
Experimental: In a subsequent step, the same 3 macaques were administered trehalose (2.67 g/kg) for two days. The macaques were then killed 1 h post-administration on day 2 and terminal brain and CSF samples collected. The brain and CSF trehalose levels were 81.3±13.8 ng/g and 562±346.5 ng/ml respectively. Similar to rats, trehalose levels in macaque brain tissue were ˜1% of the plasma level at the corresponding timepoint.

Rotenone-lesioned rat = settings: 2% trehalose in drinking water; Wu et al. 2015; cited from earlier work
[6] = 2.67 g/kg/day, 2.67 g/kg/day p.o., Day 1
[7] = 2.67 g/kg/day, 2.67 g/kg/day p.o., Day 7
[8] = 5.34 g/kg/day, 5.34 g/kg/day p.o., Day 1
[9] = 5.34 g/kg/day, 5.34 g/kg/day p.o., Day 7
[10] = both sexes, Sprague-Dawley, po, rat brain, Day 1, 2.67 g/kg p.o.
[11] = both sexes, Sprague-Dawley, po, rat brain, Day 7, 2.67 g/kg/day p.o.
[12] = both sexes, Sprague-Dawley, po, rat plasma, Day 1, 2.67 g/kg p.o.
[13] = both sexes, Sprague-Dawley, po, rat plasma, Day 7, 2.67 g/kg/day p.o.

## OC[C@H]1O[C@H](O[C@H]2O[C@H](CO)[C@@H](O)[C@H](O)[C@H]2O)[C@H](O)[C@@H](O)[C@@H]1O [trehalose, (2R,3S,4S,5R,6R)-2-(Hydroxymethyl)-6-[(2R,3R,4S,5S,6R)-3,4,5-trihydroxy-6-(hydroxymethyl)oxan-2-yl]oxyoxane-3,4,5-triol]
[1]
  Effect (behavioural): No behavioural
  Effect on dopamine levels: effect. Some
[2]; [6]
  AUC(0-inf): 27400 ng·h/mL
  Cmax: 10900 ng/mL
  Tmax: 49.8 min
  half-life: 66 min
  AUC(0-t): 26700 ng·h/mL
[2]; [7]
  AUC(0-inf): 27400 ng·h/mL
  Cmax: 9580 ng/mL
  Tmax: 40.2 min
  half-life: 90 min
  AUC(0-t): 26000 ng·h/mL
[2]; [8]
  AUC(0-inf): 80000 ng·h/mL
  Cmax: 37000 ng/mL
  Tmax: 40.2 min
  half-life: 108 min
  AUC(0-t): 78900 ng·h/mL
[2]; [9]
  AUC(0-inf): 57200 ng·h/mL
  Cmax: 22400 ng/mL
  Tmax: 49.8 min
  half-life: 138 min
  AUC(0-t): 56500 ng·h/mL
[2]; macaques, oral administration, ~8 h post-dose
  trehalose in plasma ~8 h post-dose: No trehalose was measurable
[3]; [10]
  AUC(0-inf): 97 ng·h/mL
  Cmax: 87 ng/mL
  Tmax: 15 min
  half-life: 48.6 min
  AUC(0-t): 86.8 ng·h/mL
[3]; [11]
  AUC(0-inf): 76.2 ng·h/mL
  Cmax: 73 ng/mL
  Tmax: 15 min
  half-life: 63.6 min
  AUC(0-t): 65.3 ng·h/mL
[3]; [12]
  AUC(0-inf): 11100 ng·h/mL
  Cmax: 8900 ng/mL
  Tmax: 15 min
  half-life: 45.6 min
  AUC(0-t): 10900 ng·h/mL
[3]; [13]
  AUC(0-inf): 9880 ng·h/mL
  Cmax: 8340 ng/mL
  Tmax: 15 min
  half-life: 53.4 min
  AUC(0-t): 9490 ng·h/mL
[3]; both sexes, Sprague-Dawley, rat, brain, po, rats, 2.67 g/kg/day p.o., all time-points, read-out: Brain levels of trehalose as % of plasma levels
  Kp: ~0.01
[3]; rats, 2.67 g/kg/day p.o., 8 h post-dose
  trehalose in plasma or brain 8 h post-dose: no longer detectable; also recorded: No trehalose is found
α-synuclein (αSYN)
  levels of α-synuclein (αSYN): reduces
Rats receiving A53T αSYN
  % asymmetry (mean ± s.e.mean): reduced the asymmetry
[4]
  Effect (autophagy): Increased
[5]; CSF, 1 h post-administration on day 2, read-out: CSF trehalose level
  concentration at 1 h: 562 ± 346 ng/mL
[5]; brain, 1 h post-administration on day 2, read-out: brain trehalose level
  concentration at 1 h: 81.3 ± 13.8 ng/g
[5]; brain, 2.67 g/kg, corresponding timepoint (1 h), read-out: brain trehalose level as % of plasma level
  Kp at 1 h: ~0.01
Rotenone-lesioned rat
  Effect: Neuroprotection
